What is called GI50 is the concentration that inhibits growth by half. Broadly, the TGI is the concentration at which net growth stops. Read a high TGI as less potent growth arrest.

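1) Cells in 96-well plates. 2) Compound, 48 h, 5 concentrations. 3) Linear interpolation between surrounding doses. 4) Unreached endpoint = highest concentration. GI50 is the concentration that inhibits growth by half. The concentration for full growth arrest is given as TGI.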

The first assay has as its system 786-0 renal. The assay can be described thus: DTP human tumour cell line panel, 48 h.
As for `CC[C@H](Nc1nc(N)nc(C)c1C#N)c1nc2cccc(CN(C)c3ncc(C(=O)NO)cn3)c2c(=O)n1-c1ccccc1`, the GI50 was 1.53 µM and the TGI is 6.47 µM.
`CC1=CC(=O)c2c(O)cccc2C1=O` returned a TGI of 3.01 µM.
For `COc1cc(Cn2cc3c(c2)-c2oncc2CC3)cc(OC)c1OC`, the GI50 was 0.109 µM and the TGI is more than 64.6 µM.
Taken in the same sequence, the figures for `COc1ccc(C(=O)/C=C/c2ccc(Cl)cc2)cc1S(=O)(=O)Nc1c(N)nc(SC)[nH]c1=O` were 1.95 µM and 4.13 µM.
Taken in the same sequence, the figures for `CN(C)c1ccc2nc3ccc(=[N+](C)C)cc-3oc2c1` were 16.5 µM and 90.9 µM.
On the same counts, the results for `O=S(=O)(c1ccc(NC(=S)NCc2cccnc2)cc1)N1CCCCC1` are more than 100 µM and more than 100 µM.
In turn, `O=C(O)CSSCC(=O)O` displayed a TGI of more than 100 µM.
Take `COc1cccc(C2=C(c3cn(C)c4ccccc34)C(=O)NC2=O)c1`: the GI50 was 13.4 µM and the TGI was more than 25 µM.
With `Fc1ccc2[nH]cc(Cc3c[nH]c4ccc(F)cc34)c2c1`, the GI50 was 17.1 µM and the TGI turned out to be 35.6 µM.
Taken in the same sequence, the figures for `C=C1C(=O)O[C@@H]2C1CC(=O)C(C)CC/C=C(\C)CCC[C@H](C)[C@H]2OC(C)=O` (stereo not given in full) were 17 µM and 32.2 µM.
For the compound `Cc1ccc(C(=O)Nc2ccc(S(=O)(=O)O)c3cc(S(=O)(=O)O)cc(S(=O)(=O)O)c23)cc1NC(=O)c1cccc(N)c1`, the TGI is more than 100 µM.
With `N#CC(C#N)=Cc1ccc(-c2ccc(-c3nc4ccccc4s3)cc2)o1`, the GI50 was 3.15 µM and the TGI came out at 16 µM.

In another assay the test system is PC-3 prostate. As to the kind of experiment: DTP human tumour cell line panel, 48 h.
`CC[C@H](Nc1nc(N)nc(C)c1C#N)c1nc2cccc(CN(C)c3ncc(C(=O)NO)cn3)c2c(=O)n1-c1ccccc1`: the GI50 was 1.33 µM and the concentration for total growth inhibition (TGI) stood at 8.14 µM.
`CC1=CC(=O)c2c(O)cccc2C1=O` showed a TGI of 4.75 µM.
On to `COc1cc(Cn2cc3c(c2)-c2oncc2CC3)cc(OC)c1OC`, for which the GI50 is 0.0526 µM and the concentration for total growth inhibition (TGI) was more than 100 µM.
Taken in the same sequence, the figures for `COc1ccc(C(=O)/C=C/c2ccc(Cl)cc2)cc1S(=O)(=O)Nc1c(N)nc(SC)[nH]c1=O` were 2.53 µM and 6.85 µM.
On the same counts, the results for `CN(C)c1ccc2nc3ccc(=[N+](C)C)cc-3oc2c1` are 0.52 µM and more than 100 µM.
On the same counts, the results for `O=S(=O)(c1ccc(NC(=S)NCc2cccnc2)cc1)N1CCCCC1` are 1.5 µM and more than 100 µM.
Consider `O=C(O)CSSCC(=O)O`, for which the TGI was more than 100 µM.
On to `COc1cccc(C2=C(c3cn(C)c4ccccc34)C(=O)NC2=O)c1`, for which the GI50 was 10.2 µM and the TGI was more than 25 µM.
Taken in the same sequence, the figures for `Fc1ccc2[nH]cc(Cc3c[nH]c4ccc(F)cc34)c2c1` were 15 µM and 35 µM.
Taken in the same sequence, the figures for `C=C1C(=O)O[C@@H]2C1CC(=O)C(C)CC/C=C(\C)CCC[C@H](C)[C@H]2OC(C)=O` (stereo not given in full) were 13.7 µM and 30.6 µM.
For the compound `Cc1ccc(C(=O)Nc2ccc(S(=O)(=O)O)c3cc(S(=O)(=O)O)cc(S(=O)(=O)O)c23)cc1NC(=O)c1cccc(N)c1`, the TGI is more than 100 µM.
For `N#CC(C#N)=Cc1ccc(-c2ccc(-c3nc4ccccc4s3)cc2)o1`, the GI50 was 9.54 µM and the TGI amounted to 22.5 µM.

Another assay has as its system ACHN renal. The assay can be described thus: DTP human tumour cell line panel, 48 h.
`CC[C@H](Nc1nc(N)nc(C)c1C#N)c1nc2cccc(CN(C)c3ncc(C(=O)NO)cn3)c2c(=O)n1-c1ccccc1`: the GI50 is 1.26 µM and the TGI was 3.79 µM.
Turning to `CC1=CC(=O)c2c(O)cccc2C1=O`, the TGI was determined as 3.01 µM.
`COc1cc(Cn2cc3c(c2)-c2oncc2CC3)cc(OC)c1OC`: the GI50 is 0.134 µM and the TGI was more than 100 µM.
On the same counts, the results for `COc1ccc(C(=O)/C=C/c2ccc(Cl)cc2)cc1S(=O)(=O)Nc1c(N)nc(SC)[nH]c1=O` are 3.23 µM and 12.1 µM.
On the same counts, the results for `CN(C)c1ccc2nc3ccc(=[N+](C)C)cc-3oc2c1` are 7.28 µM and 52.4 µM.
On the same counts, the results for `O=S(=O)(c1ccc(NC(=S)NCc2cccnc2)cc1)N1CCCCC1` are 29.3 µM and more than 100 µM.
For the compound `O=C(O)CSSCC(=O)O`, the TGI was more than 100 µM.
Regarding `COc1cccc(C2=C(c3cn(C)c4ccccc34)C(=O)NC2=O)c1`, the GI50 is 7.76 µM and the TGI was more than 25 µM.
On the same counts, the results for `Fc1ccc2[nH]cc(Cc3c[nH]c4ccc(F)cc34)c2c1` are 26.1 µM and 63 µM.
As to `C=C1C(=O)O[C@@H]2C1CC(=O)C(C)CC/C=C(\C)CCC[C@H](C)[C@H]2OC(C)=O` (stereo not given in full), the GI50 was 11.4 µM and the TGI amounted to 24.1 µM.
Compound `Cc1ccc(C(=O)Nc2ccc(S(=O)(=O)O)c3cc(S(=O)(=O)O)cc(S(=O)(=O)O)c23)cc1NC(=O)c1cccc(N)c1` displayed a TGI of more than 100 µM.
As to `N#CC(C#N)=Cc1ccc(-c2ccc(-c3nc4ccccc4s3)cc2)o1`, the GI50 was 18.5 µM and the TGI was more than 100 µM.

Another assay has as its system A549 NSCLC. As to the kind of experiment: DTP human tumour cell line panel, 48 h.
For `CC[C@H](Nc1nc(N)nc(C)c1C#N)c1nc2cccc(CN(C)c3ncc(C(=O)NO)cn3)c2c(=O)n1-c1ccccc1`, the GI50 was 2.06 µM and the TGI stood at 11.1 µM.
Regarding `CC1=CC(=O)c2c(O)cccc2C1=O`, the TGI was 34.6 µM.
For `COc1cc(Cn2cc3c(c2)-c2oncc2CC3)cc(OC)c1OC`, the GI50 was 0.0509 µM and the TGI was more than 100 µM.
Taken in the same sequence, the figures for `COc1ccc(C(=O)/C=C/c2ccc(Cl)cc2)cc1S(=O)(=O)Nc1c(N)nc(SC)[nH]c1=O` were 2.75 µM and 7.62 µM.
Taken in the same sequence, the figures for `CN(C)c1ccc2nc3ccc(=[N+](C)C)cc-3oc2c1` were 2.91 µM and 84.1 µM.
Taken in the same sequence, the figures for `O=S(=O)(c1ccc(NC(=S)NCc2cccnc2)cc1)N1CCCCC1` were 11 µM and more than 100 µM.
`O=C(O)CSSCC(=O)O` returned a TGI of more than 100 µM.
On to `COc1cccc(C2=C(c3cn(C)c4ccccc34)C(=O)NC2=O)c1`, for which the GI50 was 10.8 µM and the TGI was more than 25 µM.
Taken in the same sequence, the figures for `Fc1ccc2[nH]cc(Cc3c[nH]c4ccc(F)cc34)c2c1` were 17.3 µM and 50.9 µM.
On to `C=C1C(=O)O[C@@H]2C1CC(=O)C(C)CC/C=C(\C)CCC[C@H](C)[C@H]2OC(C)=O` (stereo not given in full), for which the GI50 was 19.6 µM and the TGI amounted to 38.7 µM.
Take `Cc1ccc(C(=O)Nc2ccc(S(=O)(=O)O)c3cc(S(=O)(=O)O)cc(S(=O)(=O)O)c23)cc1NC(=O)c1cccc(N)c1`: the TGI is more than 100 µM.
Take `N#CC(C#N)=Cc1ccc(-c2ccc(-c3nc4ccccc4s3)cc2)o1`: the GI50 is 14.3 µM and the TGI came out at 38.5 µM.

The test system of another assay is A498 renal. As to the kind of experiment: DTP human tumour cell line panel, 48 h.
Turning to `CC[C@H](Nc1nc(N)nc(C)c1C#N)c1nc2cccc(CN(C)c3ncc(C(=O)NO)cn3)c2c(=O)n1-c1ccccc1`, the GI50 was 0.295 µM and the TGI was found to be 1.13 µM.
`CC1=CC(=O)c2c(O)cccc2C1=O` registered a TGI of 13.2 µM.
Turning to `COc1cc(Cn2cc3c(c2)-c2oncc2CC3)cc(OC)c1OC`, the GI50 is 0.0196 µM and the TGI was 1.04 µM.
On the same counts, the results for `COc1ccc(C(=O)/C=C/c2ccc(Cl)cc2)cc1S(=O)(=O)Nc1c(N)nc(SC)[nH]c1=O` are 10.6 µM and 22.4 µM.
Taken in the same sequence, the figures for `CN(C)c1ccc2nc3ccc(=[N+](C)C)cc-3oc2c1` were 13.7 µM and 41.9 µM.
On the same counts, the results for `O=S(=O)(c1ccc(NC(=S)NCc2cccnc2)cc1)N1CCCCC1` are 15 µM and more than 100 µM.
`O=C(O)CSSCC(=O)O` displayed a TGI of more than 100 µM.
With `COc1cccc(C2=C(c3cn(C)c4ccccc34)C(=O)NC2=O)c1`, the GI50 is 3.09 µM and the TGI was more than 25 µM.
On the same counts, the results for `Fc1ccc2[nH]cc(Cc3c[nH]c4ccc(F)cc34)c2c1` are 15 µM and 31.8 µM.
Taken in the same sequence, the figures for `C=C1C(=O)O[C@@H]2C1CC(=O)C(C)CC/C=C(\C)CCC[C@H](C)[C@H]2OC(C)=O` (stereo not given in full) were 20.7 µM and 35.4 µM.
As to `Cc1ccc(C(=O)Nc2ccc(S(=O)(=O)O)c3cc(S(=O)(=O)O)cc(S(=O)(=O)O)c23)cc1NC(=O)c1cccc(N)c1`, the TGI was more than 100 µM.
Take `N#CC(C#N)=Cc1ccc(-c2ccc(-c3nc4ccccc4s3)cc2)o1`: the GI50 is 0.346 µM and the TGI stood at 0.985 µM.

The record behind these values is PubChem BioAssay (NCI).
